# According to US8268996B2, “Compounds and compositions as cathepsin S inhibitors” (IRM LLC, priority 2004, dated 2012):
# How the values were obtained:
# Format in all cases: biochemical
# Cathepsin K = target: T1, Cathepsin K (Homo sapiens, UniProt P43235); assay: Cathepsin K Assay; conditions: for Ki: pH5.5, 20 minutes incubation at room temperature, substrate 40 μM, fluorescence
# T1 sequence (P43235 115-329): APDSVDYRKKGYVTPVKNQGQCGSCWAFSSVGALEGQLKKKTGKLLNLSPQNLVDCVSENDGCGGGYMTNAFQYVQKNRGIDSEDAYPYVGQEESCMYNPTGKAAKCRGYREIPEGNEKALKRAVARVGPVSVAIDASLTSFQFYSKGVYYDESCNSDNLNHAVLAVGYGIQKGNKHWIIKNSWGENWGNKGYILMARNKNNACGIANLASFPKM
# Description: (§1) Kinetic measurements are performed in a total reaction volume of 30 μl in 384-well microtiter plates. […] Control reactions in the absence of inhibitor are performed in replicates of 24. The reactions are initiated by adding the substrate, acetyl-lysine-histidine-proline-lysine-amino carbamoyl coumarin, to a final concentration of 40 μM. The rate of substrate hydrolysis is measured by monitoring the increase in fluorescence at an excitation wavelength of 380 nm and an emission wavelength of 450 nm that results from cleavage of the aniline bond in the substrate by the enzyme. The apparent inhibition constants for the compounds are determined from the enzyme progress curves and are then used to calculate the inhibition constants for competitive inhibitors.
# Cathepsin L = Cathepsin L (Homo sapiens, UniProt P07711); assay: Cathepsin L Assay; conditions: for Ki: pH5.5, 20 minutes incubation at room temperature, substrate 20 μM, fluorescence
# Description: as §1, with “acetyl-histidine-lysine-phenylalanine-lysine-amino” for “acetyl-lysine-histidine-proline-lysine-amino”, “20” for “40”
# Cathepsin B = Cathepsin B (Homo sapiens, UniProt P07858); assay: Cathepsin B Assay; conditions: for Ki: pH5.5, 20 minutes incubation at room temperature, substrate 10 μM, fluorescence
# Description: as §1, with “acetyl-histidine-proline-valine-lysine-amino” for “acetyl-lysine-histidine-proline-lysine-amino”, “10” for “40”
# Cathepsin S = Cathepsin S (Homo sapiens, UniProt P25774); assay: Cathepsin S Assay
# Description: as §1, with “acetyl-histidine-proline-valine-lysine-amino” for “acetyl-lysine-histidine-proline-lysine-amino”, “50” for “40”
# [1] = ratio of isozyme inhibition constant to cathepsin S inhibition constant
# Sequence of Cathepsin L (P07711 114-333, species assumed): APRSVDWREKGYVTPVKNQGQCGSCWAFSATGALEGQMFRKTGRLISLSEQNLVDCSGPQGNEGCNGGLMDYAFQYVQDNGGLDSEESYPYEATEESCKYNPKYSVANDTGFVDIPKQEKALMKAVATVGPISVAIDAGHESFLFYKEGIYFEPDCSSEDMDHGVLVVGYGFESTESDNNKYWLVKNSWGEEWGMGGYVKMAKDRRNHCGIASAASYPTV
# Sequence of Cathepsin S (P25774 115-331): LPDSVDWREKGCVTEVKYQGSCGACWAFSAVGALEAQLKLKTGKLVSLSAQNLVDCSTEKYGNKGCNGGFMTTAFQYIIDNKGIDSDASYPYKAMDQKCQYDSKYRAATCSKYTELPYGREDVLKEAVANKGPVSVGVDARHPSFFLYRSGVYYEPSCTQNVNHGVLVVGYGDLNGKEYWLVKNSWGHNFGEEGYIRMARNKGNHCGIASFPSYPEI
Compound,Ki (Cathepsin K) [nM],Ki (Cathepsin L) [nM],Ki (Cathepsin B) [nM],Ki (Cathepsin S) [nM],selectivity for cathepsin S over cathepsin K (Cathepsin K; [1]),selectivity for cathepsin S over cathepsin L (Cathepsin L; [1]),selectivity for cathepsin S over cathepsin B (Cathepsin B; [1]),IC50 (Cathepsin S) [nM]
"CCC[C@H](NC(=O)O[C@@H](CC1CCCCC1)C(=O)N1CCCC1)C(=O)c1nc2ccccc2o1 [Example 27, (1S)-cyclohexylmethyl-2-oxo-2-(pyrrolidin-1-yl)-ethyl(1S)-(benzoxazole-2-carbonyl)-butyl carbamate]",211,2030,5700,0.8,–,–,–,–
"O=C(N[C@H](C(=O)c1nc2ccc(F)cc2o1)C1CC1)O[C@@H](CC1CCCCC1)C(=O)N1CCOCC1 [Example 40, 2-cyclohexyl-(1S)-(morpholine-4-carbonyl)ethyl(1S)-cyclopropyl-2-(6-fluoro-benzoxazol-2-yl)-2-oxo-ethyl carbamate]",2130,15300,> 30000,2.1,–,–,–,–
"C[C@H](NC(=O)O[C@@H](CS(=O)(=O)Cc1ccccc1)C(=O)N1CCOCC1)C(=O)c1nc2ccccc2o1 [Example 2, 2-phenylmethanesulfonyl-(1R)-(morpholine-4-carbonyl)ethyl 2-(benzoxazol-2-yl)-(1S)-methyl-2-oxo-ethyl carbamate]",> 100000,> 100000,> 100000,488,–,–,–,–
"CC[C@H](NC(=O)O[C@@H](CC1CCCCC1)C(=O)N(C)C)C(=O)c1nc2ccccc2o1 [Example 43, 2-cyclohexyl-(1S)-dimethylcarbamoyl-ethyl(1S)-(benzoxazole-2-carbonyl)-propyl carbamate]",250,4650,16000,3.6,–,–,–,–
"CCC[C@H](NC(=O)O[C@H](C(=O)N1CCOCC1)C1CCCCC1)C(=O)c1nc2ccccc2o1 [Example 46, (1S)-cyclohexyl-1-(morpholine-4-carbonyl)methyl(1S)-(benzoxazole-2-carbonyl)-butyl carbamate]",113,2210,4040,1.6,–,–,–,–
"CC[C@H](NC(=O)O[C@H](C(=O)N1CCOCC1)C1CCCCC1)C(=O)c1nc2ccc(F)cc2o1 [Example 42, (1S)-cyclohexyl-1-(morpholine-4-carbonyl)methyl(1S)-(6-fluoro-benzoxazole-2-carbonyl)-propyl carbamate]",278,9500,16700,4.6,–,–,–,–
"N#C[C@H](COCc1ccccc1Cl)NC(=O)O[C@@H](CC1CCCCC1)C(=O)N1CCOCC1 [Example 8, (1S)-cyclohexylmethyl-2-morpholin-4-yl-2-oxo-ethyl 2-(2-chloro-benzyloxy)-(1R)-cyano-ethyl carbamate]",13800,> 22600,> 30000,31.4,–,–,–,–
"O=C(N[C@H]1COCC1=O)O[C@@H](CC1CCCCC1)C(=O)N1CCOCC1 [Example 5, 2-cyclohexyl-(1S)-(morpholine-4-carbonyl)ethyl 4-oxo-tetrahydro-furan-(3S)-yl carbamate]",> 30000,> 100000,> 100000,892,–,–,–,–
"CC[C@H](NC(=O)O[C@@H](CC1CCCCC1)C(=O)N1CCCC1)C(=O)c1nc2ccc(F)cc2o1 [Example 55, (1S)-cyclohexylmethyl-2-oxo-2-(pyrrolidin-1-yl)-ethyl(1S)-(6-fluoro-benzoxazole-2-carbonyl)-propyl carbamate]",188,3970,9090,0.9,–,–,–,–
"CCC[C@H](NC(=O)O[C@@H](CC1CCCCC1)C(=O)N1CCOCC1)C(=O)c1nc2ccc(F)cc2o1 [Example 44, 2-cyclohexyl-(1S)-(morpholine-4-carbonyl)ethyl(1S)-(6-fluoro-benzoxazole-2-carbonyl)-butyl carbamate]",483,3610,9700,0.5,–,–,–,–
"CC[C@H](NC(=O)O[C@@H](CC1CCCCC1)C(=O)N1CCOCC1)C(=O)c1nc2cc(Cl)ccc2o1 [Example 48, 2-cyclohexyl-(1S)-(morpholine-4-carbonyl)ethyl(1S)-(5-chloro-benzoxazole-2-carbonyl)-propyl carbamate]",481,2750,1880,2.8,–,–,–,–
"CC[C@H](NC(=O)O[C@@H](CC1CCCCC1)C(=O)N1CCOCC1)C(=O)c1nc2ccc(C)cc2o1 [Example 47, 2-cyclohexyl-(1S)-(morpholine-4-carbonyl)ethyl(1S)-(6-methyl-benzoxazole-2-carbonyl)-propyl carbamate]",205,2170,> 30000,1.1,–,–,–,–
"O=C(N[C@H](C(=O)c1nc2ccccc2o1)C1CC1)O[C@@H](CC1CCCCC1)C(=O)N1CCOCC1 [Example 1, 2-cyclohexyl-(1S)-(morpholine-4-carbonyl)ethyl 2-(benzooxazol-2-yl)-(1S)-cyclopropyl-2-oxo-ethyl carbamate]",5160,> 23300,> 47500,6.6,at least 100 fold,at least 100 fold,at least 100 fold,6.6
"CCC[C@H](NC(=O)O[C@@H](CC1CCCCC1)C(=O)N1CCOCC1)C(=O)c1nc2cc(F)ccc2o1 [Example 54, 2-cyclohexyl-(1S)-(morpholine-4-carbonyl)ethyl(1S)-(5-fluoro-benzoxazole-2-carbonyl)-butyl carbamate]",482,2310,4360,1.8,–,–,–,–
"CC[C@H](NC(=O)O[C@@H](CC1CCCCC1)C(=O)N1CCOCC1)C(=O)c1nc2cccnc2o1 [Example 39, 2-cyclohexyl-(1S)-(morpholine-4-carbonyl)ethyl(1S)-(oxazolo[5,4-b]pyridine-2-carbonyl)-propyl carbamate]",260,1310,5220,0.4,–,–,–,–
